Where only a bound is given, the exact number is not on record here.

The target in data set [1] is T1, Glycogen synthase kinase-3 beta (Homo sapiens, UniProt P49841). The experiment in a line: Inhibition of recombinant GSK3-beta (unknown origin) assessed as decrease in phosphorylation of CREB at serine-129 in presence of ATP[gamma-33P] by filter binding assay.
Target sequence in this assay (P49841 whole entry): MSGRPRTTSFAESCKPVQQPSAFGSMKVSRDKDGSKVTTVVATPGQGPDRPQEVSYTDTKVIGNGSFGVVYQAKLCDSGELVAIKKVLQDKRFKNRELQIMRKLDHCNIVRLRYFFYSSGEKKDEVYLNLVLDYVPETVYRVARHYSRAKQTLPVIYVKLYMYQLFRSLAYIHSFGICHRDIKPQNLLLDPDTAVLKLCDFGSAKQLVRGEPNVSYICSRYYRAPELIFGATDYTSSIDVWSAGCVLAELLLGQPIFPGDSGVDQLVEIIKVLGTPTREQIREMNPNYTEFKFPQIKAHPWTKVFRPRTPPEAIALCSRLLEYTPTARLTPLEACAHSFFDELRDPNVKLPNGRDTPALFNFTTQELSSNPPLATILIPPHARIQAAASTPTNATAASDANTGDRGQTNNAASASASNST
Data set [2] can be described thus: Inhibition of recombinant rabbit GSK-3beta assessed as decrease in PPI-2 phosphorylation in presence of 33P-ATP after 90 mins by topcount scintillation counting. Also on record: species or system Oryctolagus cuniculus.
Data set [3] addresses T2, Glycogen synthase kinase-3 alpha (Homo sapiens, UniProt P49840). The experiment in a line: Inhibition of human GSK3alpha.
Data set [4] concerns the target T2, Glycogen synthase kinase-3 alpha. As to the kind of experiment: Inhibition of human GSK3alpha using biotin-Ahx-AAAKRREILSRRP-S(PO3)YR-amide as substrate after 40 mins in presence of [33gammaP]-ATP by SPA.
Data set [5] addresses T1, Glycogen synthase kinase-3 beta. The experiment in a line: Inhibition of human GSK3beta using YRRAAVPPSPSLSRHSSPHQS(PO4)EDEEE-NH2 as substrate after 60 mins in presence of [33gammaP]-ATP by topcount method.
Target sequence in this assay (P49841 whole entry): as the sequence (P49841 whole entry) above
Data set [6] can be described thus: Inhibition of GSK-3beta (unknown origin).
For a further data set, the species on record is Homo sapiens. As to the kind of experiment: Selectivity ratio of IC50 for PKCbeta2 (unknown origin) to IC50 for GSK3-beta (unknown origin).
Data set [7] addresses Glycogen synthase kinase 3 beta (Sus scrofa, UniProt B2LUN4). The experiment in a line: Inhibition of pig brain GSK3beta using GS1 as substrate after 30 mins.
The subject of the next data set is MCF7. As to the kind of experiment: Cytotoxicity against human MCF7 cells assessed as reduction in cell viability after 68 hrs by MTT assay. The format is functional, cell-based. Conditions: MCF7, 68 h. A general note: Formazan colour is commonly taken as a measure of viable cells.
The nature of data set [8]: Oral bioavailability in Zucker fa/fa rat at 10 mg/kg. The format is ADME, organism-based. Particulars: in vivo.
Data set [9] addresses T1, Glycogen synthase kinase-3 beta. The experiment in a line: Inhibition of GSK3beta (unknown origin) at 20 uM using FITC-RRRRAAEELDSRAGS(PO4)PQL as substrate after 10 mins by capillary electrophoresis relative to control.
Target sequence in this assay (P49841 whole entry, looked up): as the sequence (P49841 whole entry) above
The subject of another data set is HT-29. The experiment in a line: Cytotoxicity against human HT-29 cells at 20 uM after 2 days by MTT assay relative to control. The format is functional.

T2 sequence (P49840 whole entry): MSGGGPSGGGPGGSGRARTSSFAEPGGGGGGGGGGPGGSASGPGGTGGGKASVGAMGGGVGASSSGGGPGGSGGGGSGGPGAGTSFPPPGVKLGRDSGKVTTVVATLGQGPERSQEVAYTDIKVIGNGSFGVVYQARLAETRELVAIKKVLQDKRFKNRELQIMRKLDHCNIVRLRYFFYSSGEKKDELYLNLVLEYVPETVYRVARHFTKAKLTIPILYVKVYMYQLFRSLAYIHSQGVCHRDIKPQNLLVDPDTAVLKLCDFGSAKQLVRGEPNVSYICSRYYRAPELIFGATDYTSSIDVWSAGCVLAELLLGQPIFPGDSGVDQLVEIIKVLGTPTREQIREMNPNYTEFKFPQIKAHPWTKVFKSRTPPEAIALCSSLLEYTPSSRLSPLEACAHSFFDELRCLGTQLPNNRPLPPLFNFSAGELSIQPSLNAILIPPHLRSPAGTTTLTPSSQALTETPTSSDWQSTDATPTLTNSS
Glycogen synthase kinase 3 beta, sequence (B2LUN4 whole entry): as the sequence (P49841 whole entry) above, with V40M, T59A, T392S, A400T, T402A, A411T counted along it

The IC50 is the concentration that inhibits the measured activity by half. `CN(C)C1Cn2cc(C3=C(c4cnc5ccccn45)C(=O)NC3=O)c3cccc(c32)CN1C=O` (configuration not stated): the IC50 in [1] amounted to 1.6 nM. The same measure, in the same setting: in the case of `O=CN1Cc2cccc3c(C4=C(c5cnc6ccccn56)C(=O)NC4=O)cn(c23)CC1N1CCCCC1` (configuration not stated) it was 2 nM. For `O=C1NC(=O)C2=C1c1cn(c3ncccc13)CCCCC(O)CCCCn1cc2c2cccnc21`, the IC50 in data set [2] was 11 nM.

In the case of `O=C1NC(=O)C2=C1c1cn(c3ncccc13)CCOCCOCCOCCn1cc2c2cccnc21`, the IC50 in data set [2] worked out at 17 nM.

`CCCCC(=O)Nc1n[nH]c2nnc(-c3ccccc3)cc12` returned an IC50 in data set [3] of 4 nM.

In the case of `Fc1ccc(/C=N/Nc2ncnc3c2cnn3-c2ccccc2)cc1`, the IC50 in data set [4] turned out to be 6.2 nM.

As for `CCNC(=O)c1nnn(-c2nonc2N)c1CN1CCCCC1`, in [5], the IC50 was found to be 280 nM. For the compound `O=CN1Cc2cccc3c(C4=C(c5cnc6ccccn56)C(=O)NC4=O)cn(c23)CC1N1CCOCC1` (configuration not stated), the IC50 in [1] stood at 1.3 nM. Take `O=C1NC(=O)C(c2cn(CCCO)c3ncccc23)=C1c1ncc(C(F)(F)F)cc1Cl`: the midpoint of inhibition in data set [6], the IC50, lay at 26 nM. The Ratio IC50 in the data set listed under Homo sapiens is more than 385.

Turning to `O=C1NC(=O)C(c2cn(CCCO)c3ncccc23)=C1c1cnccn1`, in data set [2], the IC50 came out at 25 nM. The compound `COc1ccccc1C1=C(c2cn(CCCNC(=O)OC(C)(C)C)c3ncccc23)C(=O)NC1=O` yielded a half-maximal inhibitory concentration (IC50) in [6] of 7 nM. The Ratio IC50 in the data set listed under Homo sapiens was found to be 325.

With `CC(C)OC1Cn2cc(C3=C(c4cnc5ccccn45)C(=O)NC3=O)c3cccc(c32)CN1C=O` (configuration not stated), the IC50 in data set [1] stood at 1.3 nM. Regarding `CCOC(=O)c1c2[nH]c3ccccc3c2c(-c2ccc(NC(=O)CCN(C)C)cc2)c2c(=O)[nH][s+]([O-])c12` (configuration not stated), in data set [7], the IC50 came to 2800 nM. As for `Oc1ccc2c(c1)OC[C@]1(O)Cc3cc(O)c(O)cc3[C@H]21` [BRAZILIN], the 50% inhibitory concentration (IC50) with MCF7 amounted to 7230 nM. By bioavailability is commonly meant the share of a dose that reaches the circulation, judged against a reference dose that is usually intravenous. `Cc1ccc2ncc(C3=C(c4cn5c6c(cccc46)CN(C=O)C(N4CCCCC4)C5)C(=O)NC3=O)n2c1` (configuration not stated) showed a bioavailability in [8] of 45%. In addition, the IC50 in [1] was 5.2 nM. The inhibition is the drop in the measured response relative to a control, in per cent. Lower therefore signals little suppression. In the case of `O=C1Nc2ccccc2C1=Cc1cc(CN2CCN(c3ccccc3Cl)CC2)on1`, in data set [9], the inhibition amounted to 72%. In the data set on HT-29, this compound gave an Activity of 78%. In data set [8], `O=CN1Cc2cc(F)cc3c(C4=C(c5cnc6ccccn56)C(=O)NC4=O)cn(c23)CC1N1CCCCC1` (configuration not stated) yielded a bioavailability of 23%. Also, the IC50 in data set [1] is 1.1 nM.

The record behind these values is ChEMBL document CHEMBL4145467, “Glycogen synthase kinase-3 and its inhibitors: Potential target for various therapeutic conditions” (Eur J Med Chem, 2018).
